Laboratory results taken from patent publication US20060089395A1, “Nf-kb activation inhibitors” (priority 2002, published 2006).
Read-outs that look alike come from different tables or passages of the source.

How the values were obtained:
Format in all cases: cell-based, human
IL-6 = assay: Inhibition of IL-6 production by TNFα stimulation in synovial fibroblasts derived from a rheumatoid patient (ELISA); details: synovial fibroblasts, 10 ng/ml TNFα, 3 days, read-out: Inhibition against Mediator Release IC50(nM) IL-6
Experimental: (§1) Synovial fibroblasts (Human Synoviocyte (RA-Positive), Toyobo, T4040-05) were cultured for 3 days in a medium containing 10 ng/ml of TNFα and a test compound. IL-6 and IL-8 in the supernatant were measured by the ELISA method, and PGE2 (prostaglandin E2) was measured by the EIA method.

IL-8 = assay: Inhibition of IL-8 production by TNFα stimulation in synovial fibroblasts derived from a rheumatoid patient (ELISA); details: Homo sapiens, Fibroblast, 72 h; synovial fibroblasts, 10 ng/ml TNFα, 3 days; read-out: Inhibition against Mediator Release IC50(nM) IL-8
Experimental: as §1

NF-κ B = assay: Inhibitory activity of NF-κ B activation, luciferase reporter assay in HepG2 under TNF-α stimulation; details: for inhibition at 1 µg/mL / inhibition at 10 µg/mL / inhibition at 0.1 µg/mL: Homo sapiens; for inhibition at 0.1 µg/mL: 0.1 μg/ml, read-out: Inhibitory Ratio of NF-κB Activation (%) 0.1 μg/ml
Summary of the method: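 Readout is firefly luciferase luminescence, expressed as inhibition versus compound-free wells. Before this, HepG2 cells carrying a transiently transfected 5×NF-κB-site luciferase plasmid (6–24 h post-transfection) received test compound plus TNF-α (40 ng/ml) for 4 h.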

PGE2 = assay: Inhibition of PGE2 production by TNFα stimulation in synovial fibroblasts derived from a rheumatoid patient (EIA); details: synovial fibroblasts, 10 ng/ml TNFα, 3 days; read-out: Inhibition against Mediator Release IC50(nM) PGE2
Experimental: as §1

[1] = 1 μg/mL, HepG2, TNF-α (40 ng/ml), 4 hours, read-out: Inhibitory Ratio of NF-κ B Activation(%) Drug Concentration 1 μg/mL
[2] = 10 μg/mL, HepG2, TNF-α (40 ng/ml), 4 hours, read-out: Inhibitory Ratio of NF-κ B Activation(%) Drug Concentration 10 μg/mL
[3] = 1 μg/mL, HepG2, TNF-α (40 ng/ml), 4 hours
[4] = 10 μg/mL, HepG2, TNF-α (40 ng/ml), 4 hours
[5] = HepG2, 4 h, comparison table, reporter assay
[6] = HepG2, 4 h, 1 μg/ml, comparison table, reporter assay, read-out: Inhibitory Ratio of NF-κB Activation (%) 1 μg/ml
[7] = HepG2, 4 h, 10 μg/ml, comparison table, reporter assay, read-out: Inhibitory Ratio of NF-κB Activation (%) 10 μg/ml

SMILES	inhibition at 1 µg/mL (NF-κ B; [1]) [%]	Inhibitory Ratio of NF-κ B Activation(%) Drug Concentration 1 μg/mL (NF-κ B; [3]) [%]	Inhibitory Ratio of NF-κ B Activation(%) Drug Concentration 10 μg/mL (NF-κ B; [4]) [%]	further results
O=C(Nc1cc(C(F)(F)F)cc(C(F)(F)F)c1)c1cc(C#Cc2ccccc2)ccc1O [Compound No. 22, N-[3,5-bis(trifluoromethyl)phenyl]-2-hydroxy-5-(phenylethynyl)-benzamide]	83.9	–	–	IC50 (IL-6; Homo sapiens, Fibroblast, 72 h): 665 nM; IC50 (IL-8): 869 nM; inhibition at 10 µg/mL (NF-κ B; [2]): 97.1%
O=C(Nc1cc(C(F)(F)F)cc(C(F)(F)F)c1)c1cc(CCc2ccccc2)ccc1O [Compound No. 24]	–	92.3	98.3	IC50 (IL-6): 593 nM
O=C(Nc1cc(C(F)(F)F)cc(C(F)(F)F)c1)c1cc(C(F)(F)F)ccc1O [Compound No. 25]	–	96.4	99.6	IC50 (IL-6): 452 nM
COc1ccc(C(F)(F)F)cc1NC(=O)c1cc(Br)ccc1O [Compound No. 94]	–	76.6	93.4	IC50 (PGE2): 266 nM
O=C(Nc1cnc2ccccc2c1)c1cc(Cl)ccc1O [Compound No. 242]	–	–	85.7	–
O=C(Nc1cccc(Br)n1)c1cc(Cl)ccc1O [Compound No. 243]	–	84.2	95.1	–
O=C(Nc1cc(C(F)(F)F)cc(C(F)(F)F)c1)c1cc(S(=O)(=O)Nc2cc(C(F)(F)F)cc(C(F)(F)F)c2)ccc1Cl [Compound No. 247]	–	–	>99.9	–
O=C(Nc1cc(C(F)(F)F)cc(C(F)(F)F)c1)c1cccc(-c2ccccc2)c1O [Compound No. 249, N-[3,5-bis(trifluoromethyl)phenyl]-2-hydroxy-3-phenylbenzamide]	86.6	–	–	inhibition at 10 µg/mL (NF-κ B; [2]): 90.7%
O=C(Nc1cc(C(F)(F)F)cc(C(F)(F)F)c1)c1ccc(F)cc1O [Compound No. 250]	–	94.2	95.4	–
N#Cc1ccc(Oc2ccc(C(F)(F)F)cc2NC(=O)c2cc(Cl)ccc2O)cc1 [Compound No. 252]	–	93.9	96.3	–
O=C(Nc1nc(-c2ccc(Cl)cc2Cl)cs1)c1cc(Cl)ccc1O [Compound No. 255, 5-Chloro-2-hydroxy-N-[4-(2,4-dichlorophenyl)thiazol-2-yl]benzamide]	> 99.9	–	–	–
CC(C)c1cccc(C(=O)Nc2cc(C(F)(F)F)cc(C(F)(F)F)c2)c1O [Compound No. 256, N-[3,5-bis(trifluoromethyl)phenyl]-2-hydroxy-3-isopropylbenzamide]	92.1	–	–	–
CC(C)c1cc(Br)cc(C(=O)Nc2cc(C(F)(F)F)cc(C(F)(F)F)c2)c1O [Compound No. 257]	–	>99.9	–	–
Cc1cc(Br)cc(C(=O)Nc2cc(C(F)(F)F)cc(C(F)(F)F)c2)c1O [Compound No. 258]	–	>99.9	–	–
O=C(Nc1cc(C(F)(F)F)cc(C(F)(F)F)c1)c1cc(Br)cc(-c2ccccc2)c1O [Compound No. 259]	–	>99.9	–	–
O=C(Nc1nc(-c2ccc(Cl)c(Cl)c2)cs1)c1cc(Cl)ccc1O [Compound No. 260, 5-Chloro-2-hydroxy-N-[4-(3,4-dichlorophenyl)thiazol-2-yl]benzamide]	> 99.9	–	–	–
O=C(Nc1nc(-c2ccc(C(F)(F)F)cc2)cs1)c1cc(Cl)ccc1O [Compound No. 261, 5-Chloro-2-hydroxy-N-{4-[4-(trifluoromethyl)phenyl]thiazol-2-yl}benzamide]	> 99.9	–	–	–
O=C(Nc1cc(C(F)(F)F)cc(C(F)(F)F)c1)c1ccc(-c2ccccc2)cc1O [Compound No. 262, N-[3,5-Bis(trifluoromethyl)phenyl]-2-hydroxy-4-phenylbenzamide]	> 99.9	–	–	–

SMILES	inhibition at 1 µg/mL (NF-κ B; [1]) [%]	Inhibitory Ratio of NF-κ B Activation(%) Drug Concentration 1 μg/mL (NF-κ B; [3]) [%]	Inhibitory Ratio of NF-κ B Activation(%) Drug Concentration 10 μg/mL (NF-κ B; [4]) [%]	further results
O=C(Nc1nc(-c2cc(F)ccc2F)cs1)c1cc(Cl)ccc1O [Compound No. 263, 5-Chloro-2-hydroxy-N-[4-(2,5-difluorophenyl)thiazol-2-yl]benzamide]	> 99.9	–	–	–
COc1ccc(-c2csc(NC(=O)c3cc(Cl)ccc3O)n2)cc1 [Compound No. 264, 5-Chloro-2-hydroxy-N-[4-(4-methoxyphenyl)thiazol-2-yl]benzamide]	> 99.9	–	–	–
O=C(Nc1nc(-c2cccc(C(F)(F)F)c2)cs1)c1cc(Cl)ccc1O [Compound No. 265, 5-Chloro-2-hydroxy-N-{4-[3-(trifluoromethyl)phenyl]thiazol-2-yl}benzamide]	> 99.9	–	–	–
O=C(Nc1nc(-c2c(F)c(F)c(F)c(F)c2F)cs1)c1cc(Cl)ccc1O [Compound No. 266, 5-Chloro-2-hydroxy-N-[4-(2,3,4,5,6-pentafluorophenyl)thiazol-2-yl]benzamide]	> 99.9	–	–	–
CC(=O)Oc1ccccc1C(=O)Nc1cc(C(F)(F)F)cc(C(F)(F)F)c1 [compound 1, 2-acetoxy-N-[3,5-bis(trifluoromethyl)phenyl]benzamide]	90.9	–	–	inhibition at 10 µg/mL (NF-κ B; [2]): 97.1%
O=C(Nc1cc(C(F)(F)F)cc(C(F)(F)F)c1)c1ccccc1O [compound 2]	–	93.3	95.6	–
O=C(Nc1cc(C(F)(F)F)cc(C(F)(F)F)c1)c1cc(F)ccc1O [compound 3]	–	81.5	94.3	–
CC(=O)Oc1ccc(Cl)cc1C(=O)Nc1cc(C(F)(F)F)cc(C(F)(F)F)c1 [compound 5]	–	96.5	99.2	–
N#Cc1ccc(O)c(C(=O)Nc2cc(C(F)(F)F)cc(C(F)(F)F)c2)c1 [compound 9, N-[3,5-Bis(trifluoromethyl)phenyl]-5-cyano-2-hydroxybenzamide]	92.2	–	–	inhibition at 10 µg/mL (NF-κ B; [2]): 99.6%
Cc1ccc(O)c(C(=O)Nc2cc(C(F)(F)F)cc(C(F)(F)F)c2)c1 [compound 10]	–	95.8	99.4	–
Cc1ccc(C(F)(F)F)cc1NC(=O)c1cc(Cl)ccc1O [compound 92]	–	93.8	97.9	–
Cc1ccc(C(=O)C(C)(C)C)cc1NC(=O)c1cc(Cl)ccc1O [compound 166]	–	94.1	96.4	–
O=C(Nc1ccc(Cl)nc1)c1cc(Cl)ccc1O [compound 240]	–	14.3	92.3	–
O=C(Nc1ccc(Cl)c(Cl)c1)c1cc(Br)ccc1O [drawing 558, reference compound]	–	–	–	inhibition at 0.1 µg/mL (NF-κ B; [5]): 6.8%; inhibition at 1 µg/mL (NF-κ B; [6]): 88.7%; inhibition at 10 µg/mL (NF-κ B; [7]): 92.7%
O=C(Nc1ccc(F)cc1F)c1cc([N+](=O)[O-])ccc1O [drawing 559, reference compound]	–	–	–	inhibition at 0.1 µg/mL (NF-κ B; [5]): -82.9%; inhibition at 1 µg/mL (NF-κ B; [6]): -63.8%; inhibition at 10 µg/mL (NF-κ B; [7]): 86.5%
O=C(Nc1cccc(C(F)(F)F)c1)c1cc(Br)ccc1O [drawing 560, reference compound]	–	–	–	inhibition at 0.1 µg/mL (NF-κ B; [5]): -20.9%; inhibition at 1 µg/mL (NF-κ B; [6]): 88%; inhibition at 10 µg/mL (NF-κ B; [7]): 89.6%
O=C(Nc1ccc(C(F)(F)F)cc1)c1cc(Cl)ccc1O [drawing 561, reference compound]	–	–	–	inhibition at 0.1 µg/mL (NF-κ B; [5]): -35.5%; inhibition at 1 µg/mL (NF-κ B; [6]): 85.3%; inhibition at 10 µg/mL (NF-κ B; [7]): 95%
O=C(Nc1ccccc1C(F)(F)F)c1cc(Cl)ccc1O [drawing 562, reference compound]	–	–	–	inhibition at 0.1 µg/mL (NF-κ B; [5]): -18.4%; inhibition at 1 µg/mL (NF-κ B; [6]): 41.6%; inhibition at 10 µg/mL (NF-κ B; [7]): 92.9%
